Measurements taken from article PMC6429263, “Evolution and Antibacterial Evaluation of 8-Hydroxy-cycloberberine Derivatives as a Novel Family of Antibacterial Agents Against MRSA” (Molecules, 2019).
Converted amounts (≈) assume the structure as drawn. Where two headings read alike, the source gives them in different places.

What was measured:
[1] = tested on: MSSA ATCC 29213; assay: MIC, agar dilution, MSSA ATCC 29213; format: cell-based, S. aureus; conditions: Staphylococcus aureus
[2] = tested on: MSSA 15; assay: MIC, agar dilution, MSSA 15 (clinical isolate); format: cell-based, S. aureus; conditions: Staphylococcus aureus
[3] = tested on: MSSA 16-1; assay: MIC, agar dilution, MSSA 16-1 (clinical isolate); format: cell-based, S. aureus; conditions: Staphylococcus aureus; MSSA 16-1, isolated from patients in China; read-out: MIC
[4] = tested on: MSSE ATCC 12228; assay: MIC, agar dilution, MSSE ATCC 12228; format: cell-based, S. epidermidis; conditions: Staphylococcus epidermidis, MSSE ATCC 12228, read-out: MIC
[5] = tested on: MSSE 16-5; assay: MIC, agar dilution, MSSE 16-5 (clinical isolate); format: cell-based, S. epidermidis; conditions: Staphylococcus epidermidis
[6] = tested on: S.s ATCC 15305; assay: MIC, agar dilution, S.s ATCC 15305; format: cell-based; conditions: Staphylococcus saprophyticus, ATCC15305; S. saprophyticus ATCC 15305; read-out: MIC
[7] = tested on: S.h ATCC 35982; assay: MIC, agar dilution, S.h ATCC 35982; format: cell-based; conditions: Staphylococcus hominis, ATCC35982
[8] = tested on: MRSA 13-18; assay: MIC, agar dilution, MRSA 13-18; format: cell-based; conditions: Staphylococcus aureus; MRSA 13-18; read-out: MIC
[9] = tested on: MRSA 13-23; assay: MIC, agar dilution, MRSA 13-23; format: cell-based; conditions: Staphylococcus aureus; MRSA 13-23; read-out: MIC
[10] = tested on: MRSA 16-34; assay: MIC, agar dilution, MRSA 16-34; format: cell-based; conditions: Staphylococcus aureus; MRSA 16-34; read-out: MIC
[11] = tested on: MRSA ATCC 43300; assay: MIC, agar dilution, MRSA ATCC 43300; format: cell-based; conditions: Staphylococcus aureus; MRSA ATCC 43300; read-out: MIC
[12] = tested on: MRSA ATCC-B AA-1708; assay: MIC, agar dilution, MRSA ATCC-BAA-1708 (mupA positive); format: cell-based; conditions: Staphylococcus aureus; MRSA ATCC-BAA-1708, mupA positive (mupirocin resistance); read-out: MIC
[13] = tested on: MRSA ATCC -BAA-976; assay: MIC, agar dilution, MRSA ATCC-BAA-976 (clindamycin-resistant); format: cell-based; conditions: Staphylococcus aureus
[14] = tested on: VISA ATCC 700698; assay: MIC, agar dilution, VISA ATCC 700698; format: cell-based; conditions: Staphylococcus aureus; VISA ATCC 700698; read-out: MIC
[15] = tested on: VISA ATCC 700699; assay: MIC, agar dilution, VISA ATCC 700699; format: cell-based; conditions: Staphylococcus aureus; VISA ATCC 700699; read-out: MIC
[16] = tested on: MRSE 13-3; assay: MIC, agar dilution, MRSE 13-3; format: cell-based, S. epidermidis; conditions: Staphylococcus epidermidis; MRSE 13-3; read-out: MIC
[17] = tested on: MRSE 16-5; assay: MIC, agar dilution, MRSE 16-5; format: cell-based, S. epidermidis; conditions: Staphylococcus epidermidis; MRSE 16-5; read-out: MIC
[18] = MSSA 15, isolated from patients in China, read-out: MIC
[19] = MSSE 16-5, isolated from patients in China, read-out: MIC
[20] = S. hominis ATCC 35982, read-out: MIC
[21] = MRSA ATCC-BAA-976, clindamycin-resistant S. aureus, read-out: MIC

| SMILES | MIC ([1]; MSSA ATCC 29213, read-out: MIC) [µg/mL] | MIC [2, 18] [µg/mL] | MIC [3] [µg/mL] | MIC ([4]; ATCC12228) [µg/mL] | MIC [5, 19] [µg/mL] | MIC [6] [µg/mL] | MIC [7, 20] [µg/mL] | MIC [8] [µg/mL] | MIC [9] [µg/mL] | MIC [10] [µg/mL] | MIC [11] [µg/mL] | MIC [12] [µg/mL] | MIC [13, 21] [µg/mL] | MIC [14] [µg/mL] | MIC [15] [µg/mL] | MIC [16] [µg/mL] | MIC [17] [µg/mL] | further results |
| --- | --- | --- | --- | --- | --- | --- | --- | --- | --- | --- | --- | --- | --- | --- | --- | --- | --- | --- |
| COc1ccc2c(c[n+]3ccc4cc5c(c6c(Cc7c(F)cccc7F)cc2c3c46)OCO5)c1O [13d, 1,2-Methylenedioxy-8-hydroxy-9-methoxy-13-2′,6′-difluorobenzylcycloberberine chloride] | > 64 | > 64 | > 64 | > 64 | > 64 | > 64 | > 64 | > 64 | > 64 | > 64 | > 64 | > 64 | > 64 | > 64 | > 64 | > 64 | 32 | – |
| COc1ccc2c(c[n+]3ccc4cc5c(c6c(Cc7ccccc7C)cc2c3c46)OCO5)c1O [13g, 1,2-Methylenedioxy-8-hydroxy-9-methoxy-13-o-methylbenzylcycloberberine chloride] | > 64 | > 64 | > 64 | > 64 | > 64 | > 64 | > 64 | > 64 | > 64 | > 64 | > 64 | > 64 | > 64 | > 64 | > 64 | 64 | 64 | – |
| COc1ccc2c(c[n+]3ccc4cc5c(c6c(Cc7cc(C)cc(C)c7)cc2c3c46)OCO5)c1O [13j, 1,2-Methylenedioxy-8-hydroxy-9-methoxy-13-3′,5′-dimethylbenzylcycloberberine chloride] | 32 | 32 | 32 | 32 | 16 | 64 | 32 | 32 | 32 | 16 | 32 | 16 | 32 | 32 | 32 | 16 | 16 | – |
| COc1ccc2c(c[n+]3ccc4cc5c(c6c(Cc7ccc(C(C)(C)C)cc7)cc2c3c46)OCO5)c1O [13k, 1,2-Methylenedioxy-8-hydroxy-9-methoxy-13-p-tert-butylmethylbenzylcyclo berberine chloride] | 32 | 32 | 16 | 16 | 8 | 32 | 32 | 16 | 32 | 16 | 32 | 8 | 16 | 32 | 32 | 8 | 8 | – |
| COc1ccc2c(c[n+]3ccc4cc5c(c6c(Cc7ccc(OC(F)(F)F)cc7)cc2c3c46)OCO5)c1O [13l, 1,2-Methylenedioxy-8-hydroxy-9-methoxy-13-p-trifluoromethoxybenzylcyclo berberine chloride] | 32 | 32 | 32 | 32 | 32 | 64 | 64 | 32 | 32 | 32 | 64 | 32 | 64 | 64 | 32 | 32 | 32 | – |
| COc1ccc2c(c[n+]3ccc4cc5c(c6c(Cc7ccccc7C#N)cc2c3c46)OCO5)c1O [13m, 1,2-Methylenedioxy-8-hydroxy-9-methoxy-13-o-cyanbenzylcycloberberine chloride] | > 64 | > 64 | > 64 | > 64 | > 64 | > 64 | > 64 | > 64 | > 64 | > 64 | > 64 | > 64 | > 64 | > 64 | > 64 | > 64 | > 64 | – |
| COc1ccc2c(c[n+]3ccc4cc5c(c6c(Cc7cccc(C#N)c7)cc2c3c46)OCO5)c1O [13n, 1,2-Methylenedioxy-8-hydroxy-9-dimethoxy-13-m-cyanbenzylcycloberberine chloride] | > 64 | > 64 | > 64 | 16 | 32 | > 64 | 64 | > 64 | > 64 | > 64 | > 64 | > 64 | > 64 | > 64 | > 64 | 64 | 32 | – |
| COc1ccc2c(c[n+]3ccc4cc5c(c6c(Cc7cccc([N+](=O)[O-])c7)cc2c3c46)OCO5)c1O [13q, 1,2-Methylenedioxy-8-hydroxy-9-methoxy-13-m-nitrobenzylcycloberberine chloride] | > 64 | > 64 | 64 | 64 | 32 | > 64 | 64 | > 64 | > 64 | > 64 | > 64 | > 64 | 64 | > 64 | 64 | 64 | 32 | – |
| COc1ccc2c(c[n+]3ccc4cc5c(c6c(Cc7ccc([N+](=O)[O-])cc7)cc2c3c46)OCO5)c1O [13r, 1,2-Methylenedioxy-8-hydroxy-9-methoxy-13-p-nitrobenzylcycloberberine chloride] | 16 | 8 | 16 | 4 | 4 | 32 | 8 | 32 | 8 | 8 | 64 | 4 | 32 | 4 | 4 | > 64 | 16 | – |
| CCCc1cc2c3ccc(OC)c(O)c3c[n+]3ccc4cc5c(c1c4c23)OCO5 [15b, 1,2-Methylenedioxy-8-hydroxy-9-methoxy-13-propylcycloberberine chloride] | 2 | 2 | 2 | 2 | 1 | 8 | 2 | 4 | 4 | 2 | 4 | 2 | 2 | 4 | 2 | 4 | 2 | – |
| CCCCc1cc2c3ccc(OC)c(O)c3c[n+]3ccc4cc5c(c1c4c23)OCO5 [15c, 1,2-Methylenedioxy-8-hydroxy-9-methoxy-13-butylcycloberberine chloride] | 8 | 4 | 4 | 8 | 8 | 16 | 4 | 4 | 8 | 8 | 4 | 8 | 4 | 4 | 4 | 16 | 8 | – |
| C[C@H]1COc2c(N3CCN(C)CC3)c(F)cc3c(=O)c(C(=O)O)cn1c23 [Lev, levofloxacin, reference compound] | – | – | 0.25 (≈ 0.692 µM) | – | – | 1 (≈ 2.77 µM) | – | 32 (≈ 88.6 µM) | 64 (≈ 177 µM) | 64 (≈ 177 µM) | 32 (≈ 88.6 µM) | 16 (≈ 44.3 µM) | – | 32 (≈ 88.6 µM) | 8 (≈ 22.1 µM) | 32 (≈ 88.6 µM) | 8 (≈ 22.1 µM) | MIC [1]: 0.125 µg/mL (≈ 0.346 µM); MIC ([2]; MSSA): 0.125 µg/mL (≈ 0.346 µM); MIC ([4]; ATCC12228, 18 h): 0.126 µg/mL (≈ 0.349 µM); MIC [5]: 0.125 µg/mL (≈ 0.346 µM); MIC [7]: 0.125 µg/mL (≈ 0.346 µM); MIC [13]: 0.125 µg/mL (≈ 0.346 µM) |
